# Earlier results in patent publication US20220287943A1, “METHOD FOR TREATING KERATIN MATERIAL, COMPRISING THE APPLICATION OF AN ORGANIC C1-C6-ALKOXY-SILANE AND AN AMINO ACID AND/OR AMINO ACID DERIVATIVE” (Henkel AG & Co. KGaA, priority 2019, published 2022).
# Details: for solubility in water: about 25° C.
SMILES,solubility in water (in words) (at about 25° C.),solubility in water
"O=C([O-])C1=NN(c2ccc(S(=O)(=O)[O-])cc2)C(=O)C1N=Nc1ccc(S(=O)(=O)[O-])cc1.[Na+].[Na+].[Na+] (stereo not drawn) [Acid Yellow 23, trisodium salt of 4,5-dihydro-5-oxo-1-(4-sulfophenyl)-4-((4-sulfophenyl)azo)-1H-pyrazole-3-carboxylic acid]",highly soluble in water,–
"O=S(=O)([O-])c1ccc(N=Nc2c(O)ccc3ccccc23)cc1.[Na+] [Acid Orange 7, sodium salt of 4-[(2-hydroxy-1-naphthy)azo]lbenzene sulphonate]",–,more than 7 g/L
"Nc1cc(S(=O)(=O)[O-])cc2cc(S(=O)(=O)[O-])c(N=Nc3ccccc3)c(O)c12.[Na+].[Na+] [Acid Red 33, diantrium salt of 5-amino-4-hydroxy-3-(phenylazo)-naphthalene-2,7-disulphonate]",–,about 2.5 g/L
